Consider two compounds from patent EP0138020B1, “Anti-adhesive prophylactica and medicines containing a secretolytically active benzylamine derivative” (priority 1983, dated 1985).

The subject of series [1] is Klebsiella pneumoniae Weingarten 14. The series can be described thus: In vivo lung infection: bacterial count in lung homogenate. Particulars: relative to Tylose control = 100; treated 8-10 h before, 15 min before and 4-5 h after infection, preferably i.m. 20-40 mg/kg; lungs preferably 10 h after infection. Here is the method: • a. Die Kultur der Bakterien erfolgt wie oben beschrieben, allerdings ohne radioaktive Markierung. • b. Weibliche Albino-Wistar Ratten oder weibliche SPF-Mäuse (Chbb:NMRI) werden i.p., i.v., i.m., p.o., vorzugsweise i.m. 8-10 Stunden vor, 15 Minuten vor und 4-5 Stunden nach der Infektion mit 2-200 mg, vorzugsweise 20-40 mg Benzylamin pro kg Körpergewicht bzw. Tylose (Kontrolle) behandelt. Die Bakteriensuspension (5 x 10⁸-10⁻⁹Bakterien/ml physiologischer Kochsalzlösung) wird in einer Vernebelungskammer mit 0,35 ml/ Minute über 10 Minuten vernebelt. Alternativ werden 10⁶ Keime in 0,05 ml physiologischer Kochsalzlösung i.n. in den Nasengang unter einer Inhalationsnarkose, z.B. mit Chloroform, appliziert. Jeweils ein Kollektiv von Tieren wird 1-10, vorzugsweise 10 Stunden nach der Infektion seziert, die Lungen steril entnommen und die Keime im Lungenhomogenat quantitativ durch Anzüchtung auf McConkey-Agar ermittelt. Die Bakterienkonzentration wird in Keimzahl/g Lunge bestimmt.

The test system of series [2] is Klebsiella pneumoniae Weingarten 14 (Adhäsion an menschlichen Lungen-Epithelzellen ATCC, CCL5, L-132). Put plainly: Indirect effect ex vivo: bacterial adhesion to epithelial cells after incubation with lung lavage fractions from treated rats. Type of series: cell-based. Particulars: rats 25 mg/kg p.o. over 5 days, vs Tylose control animals. The text has this:
• a. Der Titer der lebenden Zellen, z.B. von menschlichen Lungen-Epithelzellen wie ATCC, CCL5, L-132, - zu denen nachgewiesenerweise die Verbindungen der obigen allgemeinen Formel I eine sehr hohe Affinität aufweisen, die mit der zum intakten Organ vergleichbar ist - wird mittels Vitalfärbung mit Trypan blue und Auszählung in einer Fuchs-Rosenthal-Zählkammer bestimmt und durch Verdünnung mit Kulturmedium, z.B. Minimum Essential Medium plus 10 % fötales Kälberserum plus 0,1 % Kanamycin, auf 7 x 10⁴ Zellen/ml eingestellt. Je 3 ml dieser Suspension werden in Glasszintillationsfläschchen gefüllt, die durch eine übliche Behandlung für die Anheftung der Epithelzellen auf die Glasoberfläche vorbereitet wurden. Die Inkubation bis zur Ausbildung eines geschlossenen Monolayers erfolgt über 3 Tage bei 37°C und 3 % CO₂. Ein Monolayer entspricht 5 x 10⁶ Zellen pro Szintillationsfläschchen. • b. Die Bakterien, z.B. Klebsiella pneumoniae Weingarten 14, werden in zwei Passagen von je 24 Stunden bei 37° C in Brain Heart Infusion Broth (BHJ) bis zur logarithmischen Wachstumsphase gezüchtet. Während der 2. Passage erfolgt die radioaktive Markierung durch die Zugabe von 1,2-¹⁴C-Azetat zum Nährmedium. Danach wird die Kultur zur Entfernung nichtinkorporierter Radioaktivität zweimal mit PBS (Phosphate buffered saline) gewaschen. Mit PBS pH 5,5 wird die Kultur im Photometer auf eine Transmission von 35 % eingestellt, was durch Ermittlung der Lebendkeimzahl einem Titer von 5 x 10⁸ Bakterien/ml entspricht. • c. Die Bakterien-Kultur wird abzentrifugiert, PBS abgenommen und durch ein gleiches Volumen Benzylamin-Lösung in PBS pH 5,5 ersetzt. Für den Kontrollwert wird statt der Benzylamin-Lösung PBS pH 5,5 verwendet. Das Nährmedium der Zellen wird abgenommen, der Monolayer (= 5 x 10⁶ Zellen) wird zweimal mit PBS pH 5,5 gespült und mit 1 ml Bakterien-Benzylamin-Lösung (= 5 x 10⁸ Bakterien) überschichtet. Die Inkubation erfolgt 3 Stunden bei 37° C. Danach wird die Bakterien-Benzylamin-Lösung abgenommen und der Monolayer zur Entfernung nicht-adhärenter Bakterien zweimal mit PBS pH 5,5 gespült. Nach Zugabe von Instagel wird die Radioaktivität der gebundenen Bakterien im Szintillationszähler gemessen. • d. Ergebnis: Mit der Verbindung A (50 |g/ml) wurden im Vergleich zur Kontrolle 15 % weniger Keime auf den Epithelzellen nachgewiesen, mit der Verbindung B (50 |g/ml) 20 %.
• a. Die Kultur der Epithelzellen erfolgt wie oben beschrieben. • b. Die Kultur der Bakterien erfolgt wie oben beschrieben. • c. Männliche SPF-Ratten (Chbb:THOM) werden über 5 Tage p.o. mit 25 mg Benzylamin pro kg Körpergewicht bzw. mit Tylose (Kontrolle) behandelt. Durch Bronchoalveolar-Lavage mit isotoner Harnstofflösung wird das Lungenwaschwasser gewonnen und gepoolt. 100 ml davon werden mittels präparativer Isoelektrofokussierung in 30 proteinhaltige Gelfraktionen aufgetrennt. Nach Bestimmung des isoelektrischen Punktes der einzelnen Fraktionen mit einer Oberflächen-Elektrode werden die Proteine mit 3 ml PBS pH 5,5 pro Fraktion vom Gel eluiert. Die 30 Fraktionen werden auf pH 5,5 eingestellt. • d. Die Bakterienkultur wird abzentrifugiert, PBS abgenommen und durch ein gleiches Volumen Lungenwaschwasserfraktion ersetzt. Für den Kontrollwert wird statt der Lungenwaschwasserfraktionen PBS pH 5,5 und isotone Harnstofflösung verwendet. Nach einer Inkubation von 2 Stunden bei 37° C wird die Bakterienkultur erneut abzentrifugiert, Lungenwaschwasserfraktionen bzw. PBS bzw. Harnstoff abgenommen und durch ein gleiches Volumen PBS pH 5,5 ersetzt. Das Nährmedium der Zellen wird abgenommen, der Monolayer (= 5 x 10⁶ Zellen) wird zweimal mit PBS pH 5,5 gespült und mit 1 ml Bakteriensuspension (= 5 x 10⁸ Bakterien) überschichtet. Die Inkubation erfolgt 2 Stunden bei 37° C Danach wird die Bakteriensuspension abgenommen und der Monolayer zur Entfernung nicht-adhärenter Bakterien zweimal mit PBS pH 5,5 gespült. Nach Zugabe von Instagel wird die Radioaktivität der gebundenen Bakterien im Szintillationszähler gemessen. • e. […]

Series [3] in a line: Acute oral toxicity (LD50). Conditions: mouse, in vivo, Maus, p.o., read-out: LD₅₀. From the text: Die Verbindungen der obigen allgemeinen Formel I und deren physiologisch verträgliche Säureadditionssalze sind untoxisch und somit gut verträglich. So weist beispielsweise an der Maus • N-Methyl-N-(2-amino-3,5-dibrom-benzyl)-cyclohexylaminhydrochlorid eine LD₅₀ von >10 g/kg p.o., • N-(2-Amino-3,5-dibrom-benzyl)-trans-4-hydroxy-cyclohexylaminhydrochlorid eine von 2,72 g/kg p.o. und • die übrigen Verbindungen eine von >1 g/kg p.o. auf.

The test system of series [4] is Klebsiella pneumoniae Weingarten 14 (Adhäsion an menschlichen Lungen-Epithelzellen ATCC, CCL5, L-132). Put plainly: Direct effect in vitro: adhesion of 14C-labelled bacteria to an epithelial cell monolayer. It counts as cell-based. Particulars: L132, 3 h, pH 5, read-out: weniger Keime auf den Epithelzellen im Vergleich zur Kontrolle. The text has this: • a. Der Titer der lebenden Zellen, z.B. von menschlichen Lungen-Epithelzellen wie ATCC, CCL5, L-132, - zu denen nachgewiesenerweise die Verbindungen der obigen allgemeinen Formel I eine sehr hohe Affinität aufweisen, die mit der zum intakten Organ vergleichbar ist - wird mittels Vitalfärbung mit Trypan blue und Auszählung in einer Fuchs-Rosenthal-Zählkammer bestimmt und durch Verdünnung mit Kulturmedium, z.B. Minimum Essential Medium plus 10 % fötales Kälberserum plus 0,1 % Kanamycin, auf 7 x 10⁴ Zellen/ml eingestellt. Je 3 ml dieser Suspension werden in Glasszintillationsfläschchen gefüllt, die durch eine übliche Behandlung für die Anheftung der Epithelzellen auf die Glasoberfläche vorbereitet wurden. Die Inkubation bis zur Ausbildung eines geschlossenen Monolayers erfolgt über 3 Tage bei 37°C und 3 % CO₂. Ein Monolayer entspricht 5 x 10⁶ Zellen pro Szintillationsfläschchen. • b. Die Bakterien, z.B. Klebsiella pneumoniae Weingarten 14, werden in zwei Passagen von je 24 Stunden bei 37° C in Brain Heart Infusion Broth (BHJ) bis zur logarithmischen Wachstumsphase gezüchtet. Während der 2. Passage erfolgt die radioaktive Markierung durch die Zugabe von 1,2-¹⁴C-Azetat zum Nährmedium. Danach wird die Kultur zur Entfernung nichtinkorporierter Radioaktivität zweimal mit PBS (Phosphate buffered saline) gewaschen. […]

Where a name gives a salt, the structure may show the parent alone.

`Nc1c(Br)cc(Br)cc1CN[C@H]1CC[C@H](O)CC1` [Verbindung B, N-(2-Amino-3,5-dibrom-benzyl)-trans-4-hydroxy-cyclohexylamin-hydrochlorid]: in series [1], the “% Keimzahl/g Lunge” value is listed as 31%. Further, the “% Hemmung der Adhäsivität” value in series [2] (Isoelektrischer Punkt der Lungenwaschwasserfraktion 4,0) worked out at 73%; in series [2] (Isoelektrischer Punkt der Lungenwaschwasserfraktion 4,4), 65%; in series [2] (Isoelektrischer Punkt der Lungenwaschwasserfraktion 4,9), 65%; in series [2] (Isoelektrischer Punkt der Lungenwaschwasserfraktion 5,2), 61%; in series [2] (Isoelektrischer Punkt der Lungenwaschwasserfraktion 5,8), 39%; in series [2] (Isoelektrischer Punkt der Lungenwaschwasserfraktion 6,7), 67%. Further, the results for the “% Hemmung der Adhäsivität” value in series [2] (Isoelektrischer Punkt der Lungenwaschwasserfraktion 7,6) and in series [2] (Isoelektrischer Punkt der Lungenwaschwasserfraktion 8,6) were 79% and 72%, respectively. In addition, the LD50 in series [3] was 2720 mg/kg. The inhibition at 50 µg/mL in series [4] worked out at 20%.
For `CN(Cc1cc(Br)cc(Br)c1N)C1CCCCC1` [Verbindung A, N-Methyl-N-(2-amino-3,5-dibrom-benzyl)-cyclohexylaminhydrochlorid], the “% Keimzahl/g Lunge” value in series [1] amounted to 49%. In addition, the LD50 in series [3] is over 10000 mg/kg. The inhibition at 50 µg/mL in series [4] was determined as 15%.
